In the supplement of paper PMC10307832:

Columns and labels:
Assay in all cases: relative viability (nuclei count vs DMSO), 5 days (fraction); higher = more cells survive
[1] = compound: CCC1=CN=CN=C1N2CCN(CC2)CC3=NC4=C(N3)C=C(C=C4)C(F)(F)F + COc1cc2c(Oc3ccc(NC(=O)C4(C(=O)Nc5ccc(F)cc5)CC4)cc3F)ccnc2cc1OCCCN1CCOCC1 [Foretinib] (partner 0.25 µM)
Outline: (§1)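 Lung cancer cell lines, seeded in 1536-well plates, were treated the following day by pin tool with a single drug or with five library-drug doses (not always all listed) in √10 steps on top of a fixed anchor-drug dose. Cells were fixed and nuclei stained in one step after 5 days, and nuclei were counted. Relative viability is the nuclei count for treated wells divided by that for vehicle wells, reported as medians of duplicate plates.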

[2] = compound: CCn1c(-c2nonc2N)nc2cnc(Oc3cccc(NC(=O)c4ccc(OCCN5CCOCC5)cc4)c3)cc21 + Cc1nc(NC(=O)N2CCC[C@H]2C(N)=O)sc1-c1ccnc(C(C)(C)C(F)(F)F)c1 [Alpelisib] (partner 2 µM)
Outline: as §1

[3] = compound: CCn1c(-c2nonc2N)nc2cnc(Oc3cccc(NC(=O)c4ccc(OCCN5CCOCC5)cc4)c3)cc21 + CC1(C)CCC(c2ccc(Cl)cc2)=C(CN2CCN(c3ccc(C(=O)NS(=O)(=O)c4ccc(N[C@H](CCN5CCOCC5)CSc5ccccc5)c(S(=O)(=O)C(F)(F)F)c4)cc3)CC2)C1 [Navitoclax] (partner 0.5 µM)
Outline: as §1

Mirin + Trametinib = compound: N=C1NC(=O)/C(=C/c2ccc(O)cc2)S1 [Mirin] + CC(=O)Nc1cccc(-n2c(=O)n(C3CC3)c(=O)c3c(Nc4ccc(I)cc4F)n(C)c(=O)c(C)c32)c1 [Trametinib] (partner 0.02 µM)
Outline: as §1

Cell Line | relative viability ([1]; first compound 0.04 µM) | relative viability ([1]; first compound 0.1265 µM) | relative viability ([1]; first compound 0.4 µM) | relative viability ([1]; first compound 4 µM) | relative viability ([2]; first compound 0.04 µM) | relative viability ([2]; first compound 0.1265 µM) | relative viability ([2]; first compound 0.4 µM) | relative viability ([2]; first compound 1.265 µM) | relative viability ([2]; first compound 4 µM) | relative viability ([3]; first compound 0.04 µM) | relative viability ([3]; first compound 0.1265 µM) | relative viability ([3]; first compound 0.4 µM) | relative viability ([3]; first compound 1.265 µM) | relative viability ([3]; first compound 4 µM) | relative viability (Mirin + Trametinib; first compound 0.25 µM) | relative viability (Mirin + Trametinib; first compound 0.7906 µM) | relative viability (Mirin + Trametinib; first compound 2.5 µM) | relative viability (Mirin + Trametinib; first compound 7.906 µM) | relative viability (Mirin + Trametinib; first compound 25 µM) | relative viability ([1]; first compound 1.265 µM)
NCI-H596 | 0.861 | 1.13 | 0.818 | 0.966 | 0.482 | 0.51 | 0.612 | 0.49 | 0.55 | 1.06 | 0.962 | 1.01 | 1.01 | 1.01 | 0.872 | 0.77 | 0.763 | 0.873 | 0.835 | –
NCI-H647 | 1.29 | 1.12 | 1.21 | 1.41 | 1.04 | 0.746 | 0.795 | 0.657 | 0.577 | 1.06 | 0.828 | 0.89 | 0.517 | 0.595 | 0.475 | 0.605 | 0.548 | 0.524 | 0.474 | 1.13
NCI-H727 | 0.854 | 0.811 | 0.693 | 0.949 | 0.745 | 0.833 | 0.751 | 0.84 | 0.713 | 0.476 | 0.564 | 0.46 | 0.441 | 0.382 | 0.443 | 0.348 | 0.41 | 0.341 | 0.34 | 0.573
NCI-H838 | 1.1 | 0.986 | 0.958 | 1.09 | 0.654 | 0.467 | 0.484 | 0.406 | 0.332 | 0.982 | 0.686 | 0.569 | 0.354 | 0.294 | 0.548 | 0.577 | 0.52 | 0.528 | 0.513 | 0.888
NCI-H1355 | 1 | 0.875 | 0.85 | 0.793 | 0.863 | 0.951 | 0.818 | 0.814 | 0.863 | 0.917 | 0.946 | 1.01 | 0.952 | 0.968 | 0.457 | 0.482 | 0.48 | 0.374 | 0.399 | 0.946
NCI-H1395 | 0.847 | 0.881 | 1.01 | 0.94 | 1.26 | 0.877 | 0.948 | 0.493 | 0.634 | 1.19 | 1.02 | 0.982 | 0.534 | 0.729 | 0.996 | – | 1.03 | 1.01 | 1 | 0.986
NCI-H1437 | 1.23 | 1.14 | 1.15 | 1.08 | 1.06 | 0.888 | 0.833 | 0.809 | 0.753 | 1.1 | 1.09 | 1.02 | 0.747 | 0.607 | 0.597 | 0.46 | 0.555 | 0.519 | 0.399 | 1.15
NCI-H1651 | 0.934 | 0.704 | 0.861 | 0.667 | 1.09 | 1.06 | 0.883 | 0.964 | 0.653 | 1.17 | 1.14 | 1.05 | 0.925 | 0.471 | 0.809 | 0.875 | 0.886 | 0.767 | 0.855 | 0.709
